This note sets out measurements from paper PMC6934184, “Selective DNA-PKcs inhibition extends the therapeutic index of localized radiotherapy and chemotherapy” (The Journal of Clinical Investigation, 2019).

The target of this assay is T1, CDC7/DBF4 (Homo sapiens, UniProt O00311).
T1 construct: purchased Thermo Fisher Scientific (Life Technologies) SelectScreen
The assay is described as follows: SelectScreen LanthaScreen. Type of assay: binding. To be noted: read-out: % displacement. A digest of the protocol: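 SelectScreen broad panel; activity (Z'LYTE, Adapta) plus binding formats. ATP: Km app for CSF1R Z'LYTE; 10 for CAMK1 Adapta. Readout = % per kinase.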
For orientation: Time-resolved FRET reads energy transfer from a long-lived donor to a nearby acceptor.

T1 sequence (O00311 whole entry): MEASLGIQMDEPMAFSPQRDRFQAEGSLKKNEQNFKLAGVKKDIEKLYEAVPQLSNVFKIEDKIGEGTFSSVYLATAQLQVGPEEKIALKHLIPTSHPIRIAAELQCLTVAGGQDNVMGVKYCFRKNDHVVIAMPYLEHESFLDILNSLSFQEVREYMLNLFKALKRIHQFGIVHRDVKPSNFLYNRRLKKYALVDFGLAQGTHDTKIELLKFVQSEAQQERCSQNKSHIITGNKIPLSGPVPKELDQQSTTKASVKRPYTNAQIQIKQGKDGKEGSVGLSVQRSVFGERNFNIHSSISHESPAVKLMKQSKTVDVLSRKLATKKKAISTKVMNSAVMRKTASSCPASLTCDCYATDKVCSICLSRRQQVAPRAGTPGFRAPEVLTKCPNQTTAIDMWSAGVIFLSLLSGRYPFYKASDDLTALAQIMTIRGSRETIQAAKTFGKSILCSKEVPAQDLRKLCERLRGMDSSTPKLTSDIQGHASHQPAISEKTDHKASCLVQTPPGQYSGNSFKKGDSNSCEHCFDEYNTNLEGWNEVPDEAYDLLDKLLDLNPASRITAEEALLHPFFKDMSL
T1 sequence (Q9UBU7 whole entry partner): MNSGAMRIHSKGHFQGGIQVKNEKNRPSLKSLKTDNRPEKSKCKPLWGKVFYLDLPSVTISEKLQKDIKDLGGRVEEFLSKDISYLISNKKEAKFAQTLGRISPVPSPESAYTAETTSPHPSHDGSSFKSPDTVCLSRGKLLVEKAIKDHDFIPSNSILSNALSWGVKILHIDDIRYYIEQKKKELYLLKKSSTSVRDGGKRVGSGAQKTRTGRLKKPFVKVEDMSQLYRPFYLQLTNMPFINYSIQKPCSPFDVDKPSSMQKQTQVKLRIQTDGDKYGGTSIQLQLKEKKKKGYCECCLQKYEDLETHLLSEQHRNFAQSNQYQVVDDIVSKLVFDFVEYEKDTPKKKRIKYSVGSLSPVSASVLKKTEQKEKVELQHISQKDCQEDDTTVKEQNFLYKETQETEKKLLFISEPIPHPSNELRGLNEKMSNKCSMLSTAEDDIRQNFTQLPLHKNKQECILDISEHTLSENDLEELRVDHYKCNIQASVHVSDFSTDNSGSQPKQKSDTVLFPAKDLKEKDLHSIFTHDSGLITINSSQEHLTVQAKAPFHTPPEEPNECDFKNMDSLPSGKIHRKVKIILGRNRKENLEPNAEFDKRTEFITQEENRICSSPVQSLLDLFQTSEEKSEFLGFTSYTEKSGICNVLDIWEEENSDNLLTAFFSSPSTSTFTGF

In the case of `CN(C(=O)CN1CCOCC1)c1ccc2sc3c(-c4cccc5c(=O)cc(N6CC7CCC(C6)O7)oc45)cccc3c2c1` [NU5455], the inhibition at 1 µM came to 6%.
